These results are taken from patent US20170253607A1, “LONG-ACTING HIV PROTEASE INHIBITOR” (Shionogi & Co., Ltd., priority 2014, published 2017).

In one data set the target is HIV-1 PR (Human immunodeficiency virus type 1 group M subtype B, UniProt P04585). The experiment in a line: HIV-protease inhibitory activity assay (FRET peptide substrate). It is filed as biochemical. Conditions: Test Example 1. The essentials:
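Fluorescence recovery at ex 485/em 535 nm reports cleavage of a quenched FRET peptide (2 μmol/L final) by 0.83 ng enzyme over 60 minutes at room temperature. Buffer was NaAc pH 4.8 with NaCl, EDTA, DTT and Tween 20. IC50 values came from four-parameter logistic regression of % inhibition.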

A short description of data set [1]: Evaluation of total body clearance (CLtot), intravenous administration. Conditions: rat (SD), intravenous administration 0.5-10 mg/kg; CLtot = dose/AUC. The class given is in vivo, Sprague-Dawley (SD). As for the experimental part:
Dose: Intravenous administration with designated doses was selected. (Doses were changed depending on compounds.) • 0.5-10 mg/kg (n=2-3) Preparation of dosing formulation: The dosing solution was prepared by dissolving in an adequate solvent. Administration method: The dosing solution was injected into the tail vein by a syringe with a needle Blood sampling: The blood was collected at the scheduled time and obtained the plasma. Plasma concentrations of the compound were measured by LC/MS/MS. Statistical analysis: Area under the plasma concentration-time curve (AUC) of the compound was calculated by pharmacokinetic analysis software, WinNonlin™ and CLtot was calculated by dividing the dose by AUC.

Turning to `COc1ccc(S(=O)(=O)N(CC(C)C)CC(O)C(Cc2ccc(OCc3ccccc3-c3nc4n(c3C(=O)O)CCCC4)cc2)NC(=O)OC2COC3(C)OCCC23)cc1` (stereo not drawn) [Compound I-125], half-maximal inhibition against HIV-1 PR (IC50) was put at 1.58 nM. In addition, the rat_CLt in data set [1] is 0.233 L/h/kg.

In the case of `COc1ccc(S(=O)(=O)N(CC(C)C)CC(O)C(Cc2ccc(OCc3ccccc3NC(=O)c3sc4c(c3C(=O)O)CC(C)(C)CC4)cc2)NC(=O)OC2COC3(C)OCCC23)cc1` (stereo not drawn) [Compound I-214], inhibition on HIV-1 PR was half-maximal at 1.89 nM (IC50). In data set [1], this molecule displayed a rat_CLt of 0.0178 L/h/kg.

For the molecule `COc1ccc(S(=O)(=O)N(CC(C)C)CC(O)C(Cc2ccc(NCc3ccc(F)c(-c4sc5c(c4C(=O)O)CC(C)(C)CC5)c3)cc2)NC(=O)OC2COC3(C)OCCC23)cc1` (stereo not drawn) [Compound I-287], at HIV-1 PR, the concentration for half-maximal inhibition (IC50) (commonly the concentration that gives 50% inhibition) was 2.02 nM. In data set [1], this molecule displayed a rat_CLt of 0.164 L/h/kg.

For the molecule `COc1ccc(S(=O)(=O)N(CC(C)C)CC(O)C(Cc2ccc(NCc3ncccc3-c3sc4c(c3C(=O)O)CC(C)(C)CC4)cc2)NC(=O)OC2COC3(C)OCCC23)cc1` (stereo not drawn) [Compound I-305], the IC50 at HIV-1 PR was found to be 1.99 nM. The rat_CLt in data set [1] was found to be 0.093 L/h/kg.

For the molecule `COc1ccc(S(=O)(=O)N(CC(C)C)CC(O)C(Cc2ccc(N(CCCc3sc4c(c3C(=O)O)CC(C)(C)CC4)Cc3ccccc3)cc2)NC(=O)OC2COC3(C)OCCC23)cc1` (stereo not drawn) [Compound I-371], inhibition against HIV-1 PR was half-maximal at 10.5 nM (IC50). The same molecule registered a rat_CLt in data set [1] of 0.281 L/h/kg.

Turning to `COc1ccc(S(=O)(=O)N(CC(C)C)CC(O)C(Cc2ccc(NCC3COCCC3c3sc4c(c3C(=O)O)CC(C)(C)CC4)cc2)NC(=O)OC2COC3(C)OCCC23)cc1` (stereo not drawn) [Compound I-399], inhibition against HIV-1 PR was half-maximal at 1.94 nM (IC50). In data set [1], this molecule had a rat_CLt of 0.0292 L/h/kg.

Turning to `COc1ccc(S(=O)(=O)N(CC(C)C)CC(O)C(Cc2ccc(N(C)Cc3ccccc3C(=O)Nc3sc4c(c3C(=O)O)CC(C)(C)CC4)cc2)NC(=O)OC2COC3(C)OCCC23)cc1` (stereo not drawn) [Compound I-407], the IC50 on HIV-1 PR worked out at 3.77 nM. Moreover, in data set [1], the rat_CLt was determined as 0.0186 L/h/kg.

As to `COc1ccc(S(=O)(=O)N(CC(C)C)CC(O)C(Cc2ccc(NCC3CCCC3c3sc4c(c3C(=O)O)CC(C)(C)CC4)cc2)NC(=O)OC2COC3(C)OCCC23)cc1` (stereo not drawn) [Compound I-409], on HIV-1 PR, it took 2.45 nM to reach half-maximal inhibition (IC50). Besides, the rat_CLt in data set [1] is 0.0524 L/h/kg.

With `COc1ccc(S(=O)(=O)N(CC(C)C)CC(O)C(Cc2ccc(NCC3CCCC3c3sc4c(c3C(=O)O)CC(C)(C)CC4)cc2)NC(=O)OC2COC3(C)OCCC23)cc1` (stereo not drawn) [Compound I-410], the midpoint of inhibition against HIV-1 PR, the IC50, lay at 1.99 nM. Moreover, in data set [1], the rat_CLt came to 0.0642 L/h/kg.

`COc1ccc(S(=O)(=O)N(CC(C)C)CC(O)C(Cc2ccc(NCc3cccc(C(=O)Nc4sc5c(c4C(=O)O)CC(C)(C)CC5)c3)cc2)NC(=O)OC2COC3(C)OCCC23)cc1` (stereo not drawn) [Compound I-436] registered an IC50 at HIV-1 PR of 3.17 nM. In addition, in data set [1], the rat_CLt turned out to be 0.103 L/h/kg.

On HIV-1 PR, `COc1ccc(S(=O)(=O)N(CC(C)C)CC(O)C(Cc2ccc(NCC3CC(C)(C)CC3c3sc4c(c3C(=O)O)CC(C)(C)CC4)cc2)NC(=O)OC2COC3OCCC23)cc1` (stereo not drawn) [Compound I-883] showed an IC50 of 2.15 nM.

Take `COc1ccc(S(=O)(=O)N(CC(C)C)CC(O)C(Cc2ccc(NCc3ccccc3NC(=O)Nc3sc4c(c3C(=O)O)CC(C)(C)CC4)cc2)NC(=O)OC2COC3OCCC23)cc1` (stereo not drawn) [Compound I-884]: 2.03 nM corresponded to half-maximal inhibition against HIV-1 PR (IC50).

On HIV-1 PR, `COc1ccc(S(=O)(=O)N(CC(C)C)CC(O)C(Cc2ccc(NCc3nc4ccccc4cc3C(=O)Nc3sc4c(c3C(=O)O)CC(C)(C)CC4)cc2)NC(=O)OC2COC3OCCC23)cc1` (stereo not drawn) [Compound I-885] came in with an IC50 of 3.48 nM.

For `COc1ccc(S(=O)(=O)N(CC(C)C)CC(O)C(Cc2ccc(NCC3CC(C)(C)CCC3c3sc4c(c3C(=O)O)CC(C)(C)CC4)cc2)NC(=O)OC2COC3OCCC23)cc1` (stereo not drawn) [Compound I-886], half-maximal inhibition against HIV-1 PR (IC50) was put at 3.68 nM.

In turn, `COc1ccc(S(=O)(=O)N(CC(C)C)CC(O)C(Cc2ccc(NCC3CC(C)(C)CCC3c3sc4c(c3C(=O)O)CC(C)(C)CC4)cc2)NC(=O)OC2COC3OCCC23)cc1` (stereo not drawn) [Compound I-887] returned an IC50 on HIV-1 PR of 2.85 nM.

Turning to `COc1ccc(S(=O)(=O)N(CC(C)C)CC(O)C(Cc2ccc(N3Cc4nc5ccccc5cc4C3=O)cc2)NC(=O)OC2COC3OCCC23)cc1` (stereo not drawn) [Compound I-888], the 50% inhibitory concentration (IC50) at HIV-1 PR came to 2.1 nM.

In turn, `CC(C)CN(CC(O)C(Cc1ccc(CCc2sc3c(c2C(=O)O)CC(C)(C)CC3)cc1)NC(=O)OC1COC2(C)OCCC12O)S(=O)(=O)c1ccc2ncsc2c1` (stereo not drawn) [Compound I-889] returned an IC50 at HIV-1 PR of 1.49 nM.

`COc1ccc(S(=O)(=O)N(CC(C)C)CC(O)C(Cc2ccc(NCc3ccccc3C(=O)Nc3sc4c(c3C(=O)O)CC(C)(C)CC4)cc2)NC(=O)OC2COC3(C)OCCC23O)cc1` (stereo not drawn) [Compound I-891]: inhibition against HIV-1 PR was half-maximal at 2.88 nM (IC50).

For `COc1ccc(S(=O)(=O)N(CC2CCCC2)CC(O)C(Cc2ccc(NCc3ccccc3C(=O)Nc3sc4c(c3C(=O)O)CC(C)(C)CC4)cc2)NC(=O)OC2COC3(C)OCCC23O)cc1` (stereo not drawn) [Compound I-892], on HIV-1 PR, the half-inhibitory concentration (IC50) stood at 4.06 nM.

The molecule `COc1ccc(S(=O)(=O)N(CC2CCC2)CC(O)C(Cc2ccc(NCc3ccccc3C(=O)Nc3sc4c(c3C(=O)O)CC(C)(C)CC4)cc2)NC(=O)OC2COC3(C)OCCC23O)cc1` (stereo not drawn) [Compound I-893] registered an IC50 at HIV-1 PR of 5.83 nM.

`COc1ccc(S(=O)(=O)N(CC(C)C)CC(O)C(Cc2ccc(OCC3CCN(c4ccc(-c5sc6c(c5C(=O)O)CC(C)(C)CC6)cc4)C3)cc2)NC(=O)OC2COC3(C)OCCC23)cc1` (stereo not drawn) [Compound I-894]: half-maximal inhibition on HIV-1 PR (IC50) required 20.4 nM.

At HIV-1 PR, `COc1ccc(S(=O)(=O)N(CC(C)C)CC(O)C(Cc2ccc(OCC3CCN(c4cccc(-c5sc6c(c5C(=O)O)CC(C)(C)CC6)c4)C3)cc2)NC(=O)OC2COC3(C)OCCC23)cc1` (stereo not drawn) [Compound I-896] returned an IC50 of 16.7 nM.

On HIV-1 PR, `COc1ccc(S(=O)(=O)N(CC(C)C)CC(O)C(Cc2ccc(NCc3ccccc3-c3ccc4[nH]c(C(=O)O)cc4c3)cc2)NC(=O)OC2COC3(C)OCCC23)cc1` (stereo not drawn) [Compound I-897] yielded a concentration for half-maximal inhibition (IC50) of 2.46 nM.

With `COc1ccc(S(=O)(=O)N(CC(C)C)CC(O)C(Cc2ccc(NCc3ccccc3-c3csc4c(C(=O)O)cccc34)cc2)NC(=O)OC2COC3(C)OCCC23)cc1` (stereo not drawn) [Compound I-898], the half-maximal inhibitory concentration (IC50) at HIV-1 PR was determined as 1.78 nM.

The molecule `COc1ccc(S(=O)(=O)N(CC(C)C)CC(O)C(Cc2ccc(NCc3ccccc3-c3ccc4c(c3)cc(C(=O)O)n4C)cc2)NC(=O)OC2COC3(C)OCCC23)cc1` (stereo not drawn) [Compound I-899] gave an IC50 at HIV-1 PR of 1.46 nM.

In turn, `COC(=O)NC(C(=O)NC(Cc1ccccc1)C(O)CN(Cc1ccc(-c2ccc(-c3sc4c(c3C(=O)O)CC(C)(C)CC4)cc2)cc1)NC(=O)C(NC(=O)OC)C(C)(C)C)C(C)(C)C` (stereo not drawn) [Compound I-900] registered an IC50 against HIV-1 PR of 2.9 nM.

Molecule `COC(=O)NC(C(=O)NC(Cc1ccccc1)C(O)CN(Cc1ccc(-c2sc3c(c2C(=O)O)CC(C)(C)CC3)cc1)NC(=O)C(NC(=O)OC)C(C)(C)C)C(C)(C)C` (stereo not drawn) [Compound I-901] came in with a 50% inhibitory concentration (IC50) on HIV-1 PR of 2.34 nM.

As for `COc1ccc(S(=O)(=O)N(CC(C)C)C[C@@H](O)[C@H](Cc2ccc(OCc3ccccc3-c3sc4c(c3C(=O)O)CC(C)(C)CC4)cc2)NC(=O)O[C@H]2CCC[C@H]3O[C@@H]4OCC[C@@H]4[C@@H]23)cc1` [Compound I-909], on HIV-1 PR, the IC50 came out at 3.25 nM.

Molecule `CCCCCCCCCCCCCC(=O)Nc1ccc(CN(C)c2ccc(C[C@H](NC(=O)OC3CO[C@@]4(C)OCC[C@@H]34)[C@H](O)CN(CC(C)C)S(=O)(=O)c3ccc(OC)cc3)cc2)c(-c2sc3c(c2C(=O)O)CC(C)(C)CC3)c1` (stereo partly drawn) [Compound I-910] gave a half-maximal inhibitory concentration (IC50) against HIV-1 PR of 7.84 nM.
